The values below come from patent US20100075965A1, “PI3 KINASE INHIBITORS AND METHODS OF THEIR USE” (Novartis AG, priority 2006, published 2010).

Where two headings read alike, the source gives them in different places.

Assay [1] concerns the target PI3 K Alpha (Homo sapiens, UniProt P42336). Put plainly: PI3 kinase phosphorylation assays (homogenous solution phase, one step solid phase, ATP depletion/KinaseGlo). Format: biochemical. Conditions: read-out: PI3K Alpha IC50.
Assay [2] has as its system pSer473-Akt in A2780 cells. In words: pSer473 Akt assay to monitor PI3K pathway in A2780 cells (MSD). It is filed as cell-based. Conditions: Homo sapiens. The protocol: In this method, an assay for measuring the PI3K-mediated pSer^473-Akt status after treatment with representative inhibitor compounds of the preferred embodiments is described.
A2780 cells were cultured in DMEM supplemented with 10% FBS, L-glutamine, sodium pyruvate, and antibiotics. Cells were plated in the same medium at a density of 15,000 cells per well into 96 well tissue culture plates, with outside wells vacant, and allowed to adhere overnight.
Test compounds supplied in DMSO were diluted further into DMSO at 500 times the desired final concentrations before dilution into culture media to 2 times the final concentrations. Equal volumes of 2× compounds in media were added to the cells in 96 well plates and incubated at 37° C. for one hour. The media and compounds were then removed, the plates chilled and cells lysed in a lysis buffer (150 mM NaCl, 20 mM Tris pH 7.5, 1 mM EDTA, 1 mM EGTA, 1% Triton X-100) supplemented with phosphatase and protease inhibitors. After thorough mixing, lysates were transferred to both pSer473Akt and total Akt assay plates from Meso Scale Discovery (MSD), and incubated overnight with shaking at 4° C. The plates were washed with 1×MSD wash buffer and the captured analytes detected with secondary antibodies. After incubation with the secondary antibody at room temperature for 1-2 hours, the plates were washed again and 1.5× concentration of Read Buffer T (MSD) was added to the wells.
The assays were read on a SECTOR Imager 6000 instrument (Meso Scale Discovery). Ratios of the signal from pSer473Akt and total Akt assays were used to correct for any variability and the percent inhibition of pSer473Akt from the total signal seen in cells treated with compound versus DMSO alone was calculated and used to determine EC50 values for each compound as shown in Tables 1 and 2 in the column labeled “A2780 pAKT473 EC50”.

In assay [3] the test system is A2780 cells. Put plainly: Viability assay in A2780 (Cell Titer Glo). Conditions: Homo sapiens, read-out: A2780 Cell prolif. EC50. It is filed as cell-based, human. In a few lines: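 A2780 cells (1,000/well, DMEM + 10% FBS) were exposed to 3-fold serial dilutions of compound for 72 hrs at 37° C, 5% CO2. Viable cells were read by Cell Titer Glo luminescence, in duplicate, and EC50 values were derived from the curves.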

[4] abbreviates: A2780 cells, read-out: A2780 pAKT 473 EC50.
Setting [5] is: 1 h, A2780 cells, one hour incubation, read-out: A2780 pAKT473 EC50.

Broadly, the IC50 is the concentration needed to halve the response being measured. Broadly, the EC50 is the concentration needed to bring the measured effect to its halfway point.

Chain of PI3 K Alpha (P42336 whole entry): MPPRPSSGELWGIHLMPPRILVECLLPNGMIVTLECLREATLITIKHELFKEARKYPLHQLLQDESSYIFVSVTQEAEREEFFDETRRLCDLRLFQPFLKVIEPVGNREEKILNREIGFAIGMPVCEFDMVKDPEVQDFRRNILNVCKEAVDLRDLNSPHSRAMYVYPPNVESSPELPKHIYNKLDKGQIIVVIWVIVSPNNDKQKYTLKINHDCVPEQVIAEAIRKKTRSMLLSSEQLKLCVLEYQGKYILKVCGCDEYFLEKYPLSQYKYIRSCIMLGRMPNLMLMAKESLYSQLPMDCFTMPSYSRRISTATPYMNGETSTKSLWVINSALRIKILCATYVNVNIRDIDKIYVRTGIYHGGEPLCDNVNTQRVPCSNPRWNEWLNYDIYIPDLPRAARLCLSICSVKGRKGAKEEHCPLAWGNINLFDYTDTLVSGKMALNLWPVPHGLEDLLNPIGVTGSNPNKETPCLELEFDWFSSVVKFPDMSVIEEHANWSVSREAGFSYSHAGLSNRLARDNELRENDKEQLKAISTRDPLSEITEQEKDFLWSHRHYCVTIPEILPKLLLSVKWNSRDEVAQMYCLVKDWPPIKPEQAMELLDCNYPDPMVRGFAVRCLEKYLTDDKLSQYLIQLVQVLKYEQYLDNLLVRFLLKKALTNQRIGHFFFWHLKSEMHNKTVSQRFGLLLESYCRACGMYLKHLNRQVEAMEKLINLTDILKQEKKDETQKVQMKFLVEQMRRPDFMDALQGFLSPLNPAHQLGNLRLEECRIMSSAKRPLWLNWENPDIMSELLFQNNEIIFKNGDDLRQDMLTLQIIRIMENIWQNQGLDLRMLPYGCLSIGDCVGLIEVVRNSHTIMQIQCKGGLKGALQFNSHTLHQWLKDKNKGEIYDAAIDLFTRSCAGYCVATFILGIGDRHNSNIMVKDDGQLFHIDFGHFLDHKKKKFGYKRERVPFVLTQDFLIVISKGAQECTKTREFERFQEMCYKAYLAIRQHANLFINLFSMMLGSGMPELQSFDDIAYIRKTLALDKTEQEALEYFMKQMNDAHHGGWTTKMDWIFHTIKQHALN
Chain of PI3 K Alpha (P27986 whole entry partner): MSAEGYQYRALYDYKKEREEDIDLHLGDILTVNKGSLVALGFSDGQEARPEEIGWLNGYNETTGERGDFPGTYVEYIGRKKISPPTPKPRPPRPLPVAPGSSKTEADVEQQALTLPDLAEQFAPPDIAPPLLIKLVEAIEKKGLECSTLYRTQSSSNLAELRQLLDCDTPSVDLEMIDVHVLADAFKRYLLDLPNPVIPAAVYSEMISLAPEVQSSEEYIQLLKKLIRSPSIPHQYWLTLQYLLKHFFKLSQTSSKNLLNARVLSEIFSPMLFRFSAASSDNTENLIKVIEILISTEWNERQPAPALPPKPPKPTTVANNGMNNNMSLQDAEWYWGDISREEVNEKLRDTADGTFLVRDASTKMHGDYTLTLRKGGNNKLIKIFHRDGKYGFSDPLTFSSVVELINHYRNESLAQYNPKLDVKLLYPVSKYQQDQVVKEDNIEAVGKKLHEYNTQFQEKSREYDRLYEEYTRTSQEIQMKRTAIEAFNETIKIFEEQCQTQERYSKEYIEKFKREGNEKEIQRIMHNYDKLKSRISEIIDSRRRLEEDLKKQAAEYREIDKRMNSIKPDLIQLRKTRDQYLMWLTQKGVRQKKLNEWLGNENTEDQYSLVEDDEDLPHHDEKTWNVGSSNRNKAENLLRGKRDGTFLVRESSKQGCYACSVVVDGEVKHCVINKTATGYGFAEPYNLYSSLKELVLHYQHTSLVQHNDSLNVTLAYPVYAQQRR

As for `CC(=O)Nc1cn2cc(-c3cnc(N)c(/C=N/NCC(F)(F)F)c3)ccc2n1` [Example 76, (E)-N-(6-(6-amino-5-((2-(2,2,2-trifluoroethyl) hydrazono)methyl)pyridin-3-yl)imidazo[1,2-a]pyridin-2-yl)acetamide], the IC50 in assay [1] is under 1000 nM. The EC50 in assay [2] (setting [4]) and in assay [3] (A2780 cells) was under 1000 nM in each case.

In the case of `CC(=O)Nc1cn2nc(-c3cnc(N)c(-c4ccccc4C(F)(F)F)c3)ccc2n1` [Example 53, N-(6-(6-amino-5-(2-(trifluoromethyl)phenyl)pyridin-3-yl)imidazo[1,2-b]pyridazin-2-yl)acetamide], in assay [1], the IC50 was under 1000 nM. In addition, the EC50 in assay [2] (setting [4]) and in assay [3] (A2780 cells) was under 1000 nM in each case.

`CC(=O)Nc1cn2cc(-c3cnc(N)c(-c4ccc(N5CCOCC5)cc4)c3)ccc2n1` [Example 39, N-(6-(6-amino-5-(4-morpholino-phenyl)pyridin-3-yl)imidazo[1,2-a]pyridin-2-yl)acetamide]: in assay [1], the concentration for half-maximal inhibition (IC50) is under 10000 nM. For the same compound, the EC50 in assay [2] (setting [4]) and in assay [3] (A2780 cells) was under 10000 nM in each case.

With `CC(=O)Nc1nc2ccc(-c3ccc(N)nc3)cc2s1` [Example 2-2, N-[6-(6-Amino-pyridin-3-yl)-benzothiazol-2-yl]-acetamide], the EC50 in assay [2] (setting [5]) is under 1000 nM; in assay [3] (A2780 cells, 72 hrs), under 10000 nM.

As for `CC(=O)Nc1nc2ccc(-c3cnc(N)c(C(F)(F)F)c3)cc2s1` [Example 2-8, N-[6-(6-Amino-5-trifluoromethyl-pyridin-3-yl)-benzothiazol-2-yl]-acetamide], the EC50 in assay [2] (setting [5]) is under 1000 nM; in assay [3] (A2780 cells, 72 hrs), under 1000 nM.

Consider `CCOc1cc(-c2ccc3nc(NC(C)=O)cn3n2)cnc1N` [Example 119, N-(6-(6-amino-5-ethoxypyridin-3-yl)imidazo[1,2-b]pyridazin-2-yl)acetamide], for which the 50% effective concentration (EC50) in assay [2] (setting [4]) is under 1000 nM.

Regarding `CC(=O)Nc1nc2ccc(-c3cnc(N)c(C)c3)cc2s1` [Example 2-4, N-[6-(6-Amino-5-methyl-pyridin-3-yl)-benzothiazol-2-yl]-acetamide], the EC50 in assay [2] (setting [5]) is under 1000 nM; in assay [3] (A2780 cells, 72 hrs), under 10000 nM.

For `CC(=O)Nc1cn2cc(-c3cnc(N)c(OCC(F)(F)F)n3)ccc2n1` [Example 56, N-(6-(5-amino-6-(2,2,2-trifluoroethoxy)pyrazin-2-yl)imidazo[1,2-a]pyridin-2-yl)acetamide], in assay [2] (setting [4]), the EC50 is under 1000 nM.

For `CC(=O)Nc1cn2cc(-c3cnc(N)c(C(F)(F)F)c3)ccc2n1` [Example 5, N-[6-(6-Amino-5-trifluoromethyl-pyridin-3-yl)-imidazo[1,2-a]pyridin-2-yl]-acetamide], in assay [2] (setting [4]), the EC50 is under 1000 nM.

`COCCOc1cc(-c2ccc3nc(NC(C)=O)cn3n2)cnc1N` [Example 106, N-(6-(6-amino-5-(2-methoxyethoxy)pyridin-3-yl)imidazo[1,2-b]pyridazin-2-yl)acetamide]: the EC50 in assay [2] (setting [4]) was under 1000 nM.

On to `CCOc1nc(-c2ccc3nc(NC(C)=O)cn3c2)cnc1N` [Example 62, N-(6-(5-amino-6-ethoxypyrazin-2-yl)imidazo[1,2-a]pyridin-2-yl)acetamide], for which the EC50 in assay [2] (setting [4]) was under 1000 nM.

With `Nc1ncc(-c2ccc3nc(NC(=O)CCCN4CCOCC4)sc3c2)cc1C(F)(F)F` [Example 2-12, N-[6-(6-Amino-5-trifluoromethyl-pyridin-3-yl)-benzothiazol-2-yl]-4-morpholin-4-yl-butyramide], the EC50 in assay [2] (setting [5]) was under 1000 nM; in assay [3] (A2780 cells, 72 hrs), under 10000 nM.

Consider `COc1cc(-c2ccc3nc(NC(C)=O)cn3c2)cnc1N` [Example 6, N-[6-(6-Amino-5-methoxy-pyridin-3-yl)-imidazo[1,2-a]pyridin-2-yl]-acetamide], for which the 50% effective concentration (EC50) in assay [2] (setting [4]) is under 1000 nM.

As for `Nc1ncc(-c2ccc3nc(NC(=O)CCCN4CCCCC4)sc3c2)cc1C(F)(F)F` [Example 2-21, N-[6-(6-Amino-5-trifluoromethyl-pyridin-3-yl)-benzothiazol-2-yl]-4-piperidin-1-yl-butyramide], the concentration for a half-maximal effect (EC50) in assay [2] (setting [5]) was under 1000 nM; in assay [3] (A2780 cells, 72 hrs), under 10000 nM.

As for `Nc1ccc(-c2ccc3nc(NC(=O)CCCN4CCCCC4)sc3c2)cn1` [Example 2-5, N-[6-(6-Amino-pyridin-3-yl)-benzothiazol-2-yl]-4-piperidin-1-yl-butyramide], the EC50 was under 1000 nM in assay [2] (setting [5]) and under 10000 nM in assay [3] (A2780 cells, 72 hrs).

Regarding `COc1cc(-c2ccc3nc(NC(C)=O)cn3n2)cnc1N` [Example 21, N-[6-(6-Amino-5-methoxy-pyridin-3-yl)-imidazo[1,2-b]pyridazin-2-yl]-acetamide], the EC50 in assay [2] (setting [4]) was under 1000 nM.

For the compound `COCCOc1nc(-c2ccc3nc(NC(C)=O)cn3c2)cnc1N` [Example 61, N-(6-(5-amino-6-(2-methoxyethoxy)pyrazin-2-yl)imidazo[1,2-a]pyridin-2-yl)acetamide], in assay [2] (setting [4]), the EC50 is under 1000 nM.

Take `CC(=O)Nc1cn2nc(-c3cnc(N)c(C(F)(F)F)c3)ccc2n1` [Example 16, N-[6-(6-Amino-5-trifluoromethyl-pyridin-3-yl)-imidazo[1,2-b]pyridazin-2-yl]-acetamide]: in assay [2] (setting [4]), the half-maximal effective concentration (EC50) was under 1000 nM.

On to `CC(=O)Nc1cn2cc(-c3cnc(N)c(O[C@@H](C)C(F)(F)F)n3)ccc2n1` [Example 55, (S)-N-(6-(5-amino-6-(1,1,1-trifluoropropan-2-yloxy)pyrazin-2-yl)imidazo[1,2-a]pyridin-2-yl)acetamide], for which the EC50 in assay [2] (setting [4]) is under 1000 nM.

Regarding `CC(=O)Nc1nc2ccc(-c3cnc(N)nc3)cc2s1` [Example 2-1, N-[6-(2-Amino-pyrimidin-5-yl)-benzothiazol-2-yl]-acetamide], the EC50 is under 1000 nM in assay [2] (setting [5]) and under 10000 nM in assay [3] (A2780 cells, 72 hrs).

`CC(=O)Nc1cn2cc(-c3cnc(N)c(O[C@H](C)C(F)(F)F)n3)ccc2n1` [Example 70, (R)-N-(6-(5-amino-6-(1,1,1-trifluoropropan-2-yloxy)pyrazin-2-a]pyridin-2-yl)acetamide]: in assay [2] (setting [4]), the EC50 is under 1000 nM.

In the case of `CC(=O)Nc1cn2cc(-c3cnc(N)c(OC(C)C)n3)ccc2n1` [Example 54, N-(6-(5-amino-6-isopropoxy-pyrazin-2-yl)imidazo[1,2-a]pyridin-2-yl)acetamide], the EC50 in assay [2] (setting [4]) is under 1000 nM.

As for `CCOc1cc(-c2ccc3nc(NC(C)=O)cn3c2)cnc1N` [Example 111, N-(6-(6-amino-5-ethoxypyridin-3-yl)imidazo[1,2-a]pyridin-2-yl)acetamide], the half-maximal effective concentration (EC50) in assay [2] (setting [4]) is under 1000 nM.

With `COc1cc(-c2ccc3nc(NC(C)=O)sc3c2)cnc1N` [Example 2-9, N-[6-(6-Amino-5-methoxy-pyridin-3-yl)-benzothiazol-2-yl]-acetamide], the EC50 in assay [2] (A2780, 1 h, read-out: A2780 pAKT473 EC50) is under 1000 nM; in assay [3] (A2780, 72 h), under 1000 nM.

Regarding `Nc1ccc(-c2ccc3nc(NC(=O)C(F)(F)F)cn3c2)cn1` [Example 1, N-[6-(6-Amino-pyridin-3-yl)-imidazo[1,2-a]pyridin-2-yl]-2,2,2-trifluoro-acetamide], the half-maximal effective concentration (EC50) was under 10000 nM in assay [2] (setting [4]) and under 25000 nM in assay [3] (A2780 cells).

In the case of `COc1nc(-c2ccc3nc(NC(C)=O)cn3c2)cnc1N` [Example 101, N-(6-(5-amino-6-methoxypyrazin-2-yl)imidazo[1,2-a]pyridin-2-yl)acetamide], the concentration giving a half-maximal response (EC50) in assay [2] (setting [4]) is under 1000 nM.

For the compound `Nc1ncc(-c2ccc3nc(NC(=O)[C@@H]4CCCCN4)cn3c2)cc1C(F)(F)F` [Example 283, (S)-N-(6-(6-amino-5-(trifluoromethyl)pyridin-3-yl)imidazo[1,2-a]pyridin-2-yl)piperidine-2-carboxamide], the EC50 in assay [2] (setting [4]) was under 1000 nM; in assay [3] (A2780 cells) it was under 10000 nM.
